In assay [1] the test system is hASIC3 (h3) and/or hASIC1a (h1a). Description: FlexStation/FLIPR assay, channel not marked in the cell. Format: cell-based, human. Particulars: FlexStation, Table C. From the text:
(§1) The MES-induced peak calcium response (or change in membrane potential), in the presence of test substance, is expressed relative to the MES response alone. Test substances that block the MES-induced calcium response (or change in membrane potential) are re-tested in triplicates. Confirmed hits are picked for further characterization by performing full dose-response curves to determine potency of each hit compound as represented by the IC50 values (i.e., the concentration of the test substance which inhibits 50% of the MES-induced calcium and/or membrane potentiation response; see, for example, FIG. 1).
(§2) The data shown in Table H was acquired using the FlexStation assay described in Example 1 on HEK293 cells expressing hASIC3 (h3) and/or hASIC1a (h1a).

In assay [2] the target is T1, hASIC3 (Homo sapiens, UniProt Q9UHC3).
T1 sequence (Q9UHC3 1-531): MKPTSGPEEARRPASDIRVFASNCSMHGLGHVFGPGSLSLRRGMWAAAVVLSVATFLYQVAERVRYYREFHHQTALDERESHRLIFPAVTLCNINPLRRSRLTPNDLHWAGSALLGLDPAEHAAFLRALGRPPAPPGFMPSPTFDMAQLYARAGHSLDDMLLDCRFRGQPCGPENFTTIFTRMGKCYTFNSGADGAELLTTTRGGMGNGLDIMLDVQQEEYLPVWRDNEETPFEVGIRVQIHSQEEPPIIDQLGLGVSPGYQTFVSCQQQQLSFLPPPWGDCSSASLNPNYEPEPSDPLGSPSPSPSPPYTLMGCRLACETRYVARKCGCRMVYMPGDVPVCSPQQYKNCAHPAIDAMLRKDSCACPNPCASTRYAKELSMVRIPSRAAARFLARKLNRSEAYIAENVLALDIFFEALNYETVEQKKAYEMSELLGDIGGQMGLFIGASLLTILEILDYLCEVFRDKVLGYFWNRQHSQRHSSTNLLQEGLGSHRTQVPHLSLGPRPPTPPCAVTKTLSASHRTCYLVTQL
Description: FlexStation assay on HEK293 cells expressing hASIC3. Format: cell-based. More on the design: expressed in transfected cells; host or cells: HEK293 cells. Particulars: for IC50: FlexStation (Flex), Tables A-F, read-out: Biological Data (IC50 uM) h3 (Flex). How it is done: A vial of FMP dye (Molecular Devices) is resuspended in 10.5 ml of assay buffer (48.3 mM NaCl, 93 mM NMDG, 5 mM KCl, 5 mM CaCl2, 1 mM MgCl2, 10 mM HEPES, pH 7.4). The culture medium is aspirated from the wells, and 100 μl of the FMP loading solution is added to each well. The cells are incubated at 37° C. for 30 min.
After the loading period, the loading solution is left on the cells and the membrane potential-induced fluorescence is measured in FLIPR™ or FlexStation™ (Molecular Devices, USA), or any other suitable equipment known to the skilled in the art.
For cells co-expressing ASIC1a and ASIC3 channels (e.g. HEK293 cells), membrane potential dye (FMP dye) is used and the FlexStation settings are as above.
as §1, §2

Assay [3] deals with T2, hASIC1a (Homo sapiens, UniProt P78348).
T2 sequence (P78348 1-528): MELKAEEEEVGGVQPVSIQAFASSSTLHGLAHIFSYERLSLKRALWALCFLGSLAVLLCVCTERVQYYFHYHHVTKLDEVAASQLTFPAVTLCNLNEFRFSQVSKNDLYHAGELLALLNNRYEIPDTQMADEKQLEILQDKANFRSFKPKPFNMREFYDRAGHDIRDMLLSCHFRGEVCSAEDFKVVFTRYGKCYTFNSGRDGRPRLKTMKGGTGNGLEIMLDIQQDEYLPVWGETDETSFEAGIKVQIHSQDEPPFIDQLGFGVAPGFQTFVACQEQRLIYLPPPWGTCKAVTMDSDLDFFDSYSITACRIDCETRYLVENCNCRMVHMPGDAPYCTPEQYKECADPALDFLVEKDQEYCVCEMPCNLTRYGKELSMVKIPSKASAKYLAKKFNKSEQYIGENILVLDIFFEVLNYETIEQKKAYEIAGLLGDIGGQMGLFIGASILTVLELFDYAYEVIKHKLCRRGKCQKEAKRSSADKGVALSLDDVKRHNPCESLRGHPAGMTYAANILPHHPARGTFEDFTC
As to the kind of experiment: FlexStation/FLIPR calcium-imaging assay, acid (MES)-induced response in ASIC1a expressing cells. Format: cell-based. More on the design: expressed in transfected cells. Particulars: FlexStation (Flex), Tables A-F; read-out: Biological Data (IC50 uM) h1a (Flex). Here is the method: Identification of ASIC Antagonists Using Calcium-Imaging
ASIC1a expressing HEK293 or CHO cells are grown in culture medium (DMEM with 10% FBS), in polystyrene culture flasks ([…]) at 37° C. in a humidified atmosphere of 5% CO2. Confluency of cells should be 80-90% on day of plating. Cells are rinsed with 10 ml of PBS and re-suspended by addition of culture medium and trituration with a 25 ml pipette.
The cells are seeded at a density of approximately 1×10^5 cells/ml for HEK293 and 8×10^4 for CHO cells (100 μl/well) in black-walled, clear bottom, poly-D-lysin pre-treated 96-well plates. Plated cells were allowed to proliferate for 48 h before loading with dye.
Fluo-4/AM (1 mg, Molecular Probes) is dissolved in 912 μl DMSO. The Fluo-4/AM stock solution (1 mM) is diluted with culture medium to a final concentration of 2 μM (loading solution).
The culture medium is aspirated from the wells, and 80 μl of the Fluo-4/AM loading solution is added to each well. The cells are incubated at 37° C. for 30 min. When CHO cells are used, probenicid at 2.5 mM (final concentration) is added in the loading solution.
After the loading period (15-20 min., the loading solution is aspirated and the cells are washed twice with 100 μl modified Assay Buffer (145 mM NaCl, 5 mM KCl, 5 mM CaCl2, 1 mM MgCl2, 10 mM HEPES, pH 7.4) to remove extracellular dye. Following the second wash, 100 μl modified Assay Buffer is added to each well and the fluorescence is measured in FLIPR™ or FlexStation™ (Molecular Devices, USA), or any other suitable equipment known to the skilled in the art. When CHO cells are used, probenicid at 2.5 mM (final concentration) is added in the wash buffer.
First addition: 50 μl test solution at a rate of 26 μl/sec and a starting height of 125 μl
Second addition: 50 μl MES solution (20 mM, 5 mM final concentration) at a rate of 26 μl/sec and a starting height of 115 μl.
Reading intervals: pre-incubation—120 sec. antagonist phase, addition of MES at 145 sec. and reading time with agonist 100 sec (total run time of 240 sec).
Fluorescence obtained after stimulation is corrected for the mean basal fluorescence (in modified Assay Buffer).
as §1

In assay [4] the target is T2, hASIC1a. As to the kind of experiment: Two-electrode voltage clamp in Xenopus laevis oocytes expressing hASIC1a (OpusExpress). Format: cell-based. More on the design: expressed in transfected cells; host or cells: Xenopus laevis oocytes, nuclear microinjection of cDNA (e.g. in pCDNA3). Summed up: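 Two-electrode voltage clamp on Xenopus oocytes expressing homomeric hASIC1a, recorded on an automated multichannel system. Oocytes superfused with Ringer (HEPES, pH 7.4); currents evoked by MES-buffered acidic Ringer, with compound present in both control and acidic solutions, at room temperature.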
A general note: Two-electrode voltage clamp is typically applied to oocytes expressing channels or transporters.

Broadly, the IC50 is the concentration needed to halve the response being measured. The EC50 is the concentration that produces a half-maximal response.

On to `COc1ccc(-c2cc(C(=O)O)c3cc(Cl)ccc3n2)cc1` [Compound 38, 6-chloro-2-(4-methoxy-phenyl)-quinoline-4-carboxylic acid], for which the “Biological Data (Flex), channel not given” value in assay [1] is given as “Not Active (Flex)”.
`COc1ccc(-c2cc(C(=O)O)c3ccccc3n2)cc1OC` [Compound 39, 2-(3,4-Dimethoxy-phenyl)-quinoline-4-carboxylic acid]: the “Biological Data (Flex), channel not given” value in assay [1] is “Not Active (Flex)”.
Regarding `O=C(O)c1cccc(Nc2nc(-c3ccc(Cl)cc3Cl)nc3ccccc23)c1` [Compound 101, 3-[2-(2,4-dichloro-phenyl)-quinazolin-4-ylamino]-benzoic acid], the half-inhibitory concentration (IC50) in assay [2] was greater than 50 µM; in assay [3], 20 to 30 µM.
With `Clc1ccc2c(N3CCNCC3)ccnc2c1` [Compound H, 7-chloro-4-piperazin-1-yl-quinoline], in assay [2], the half-maximal effective concentration (EC50) is less than 10 µM. Further, the IC50 in assay [2] was 5 to 15 µM; in assay [4] (OpusExpress (OX), Tables A-F, h1a printed in some cells only, read-out: Biological Data (IC50 uM) h1a (OX)), 30 to 50 µM; in assay [4] (Table H, read-out: IC50 (μM) Opus Express (h1a)), 43.7 µM; in assay [3] it was 2 to 10 µM.

The record behind these values is patent publication US20070197509A1, “Compositions and methods for modulating gated ion channels” (PainCeptor Pharma Corporation, priority 2005, published 2007).
